The NIST ThermoML archive (doi:10.1021/je900715y)
± gives the expanded uncertainty stated by the source.

Experiment: xn = mol fraction of the nth substance listed
Details: 101.3 kPa, Liquid

CCC(C)O (stereo not given) [butan-2-ol] + CCCCCCC
mass density [kg/m3]
Details | 288.15 K | 293.15 K | 298.15 K | 303.15 K | 308.15 K | 313.15 K | 318.15 K | 323.15 K
x1 = 0.05 | 691.106 ± 0.63 | 686.813 ± 0.64 | 682.487 ± 0.65 | 678.127 ± 0.65 | 673.731 ± 0.66 | 669.301 ± 0.67 | 664.835 ± 0.67 | 660.336 ± 0.68
x1 = 0.1 | 694.641 ± 0.63 | 690.325 ± 0.64 | 685.97 ± 0.65 | 681.576 ± 0.65 | 677.138 ± 0.66 | 672.659 ± 0.66 | 668.131 ± 0.67 | 663.562 ± 0.68
x1 = 0.15 | 698.486 ± 0.63 | 694.158 ± 0.64 | 689.789 ± 0.64 | 685.376 ± 0.65 | 680.913 ± 0.66 | 676.402 ± 0.66 | 671.84 ± 0.67 | 667.23 ± 0.68
x1 = 0.2003 | 702.573 ± 0.63 | 698.236 ± 0.63 | 693.854 ± 0.64 | 689.427 ± 0.65 | 684.946 ± 0.65 | 680.415 ± 0.66 | 675.83 ± 0.67 | 671.188 ± 0.67
x1 = 0.3016 | 711.547 ± 0.62 | 707.194 ± 0.62 | 702.791 ± 0.63 | 698.341 ± 0.64 | 693.835 ± 0.65 | 689.275 ± 0.65 | 684.65 ± 0.66 | 679.969 ± 0.67
x1 = 0.4004 | 721.346 ± 0.61 | 716.97 ± 0.62 | 712.546 ± 0.62 | 708.073 ± 0.63 | 703.542 ± 0.64 | 698.952 ± 0.64 | 694.299 ± 0.65 | 689.584 ± 0.66
x1 = 0.5002 | 732.429 ± 0.6 | 728.035 ± 0.61 | 723.591 ± 0.62 | 719.095 ± 0.62 | 714.54 ± 0.63 | 709.925 ± 0.64 | 705.243 ± 0.64 | 700.502 ± 0.65
x1 = 0.5999 | 744.751 ± 0.59 | 740.362 ± 0.6 | 735.917 ± 0.61 | 731.411 ± 0.61 | 726.839 ± 0.62 | 722.202 ± 0.63 | 717.496 ± 0.63 | 712.72 ± 0.64
x1 = 0.65 | 751.547 ± 0.59 | 747.174 ± 0.6 | 742.739 ± 0.6 | 738.239 ± 0.61 | 733.67 ± 0.61 | 729.03 ± 0.62 | 724.317 ± 0.63 | 719.533 ± 0.63
x1 = 0.72 | 761.59 ± 0.58 | 757.255 ± 0.59 | 752.851 ± 0.59 | 748.373 ± 0.6 | 743.821 ± 0.61 | 739.19 ± 0.61 | 734.479 ± 0.62 | 729.69 ± 0.63
x1 = 0.8 | 774.103 ± 0.57 | 769.827 ± 0.58 | 765.479 ± 0.59 | 761.053 ± 0.59 | 756.541 ± 0.6 | 751.943 ± 0.6 | 747.257 ± 0.61 | 742.488 ± 0.62
x1 = 0.8499 | 782.463 ± 0.57 | 778.238 ± 0.57 | 773.935 ± 0.58 | 769.552 ± 0.59 | 765.08 ± 0.59 | 760.519 ± 0.6 | 755.863 ± 0.6 | 751.116 ± 0.61
x1 = 0.8995 | 791.187 ± 0.56 | 787.015 ± 0.57 | 782.767 ± 0.57 | 778.434 ± 0.58 | 774.01 ± 0.59 | 769.495 ± 0.59 | 764.879 ± 0.6 | 760.166 ± 0.6
x1 = 0.9501 | 800.691 ± 0.56 | 796.583 ± 0.56 | 792.396 ± 0.57 | 788.125 ± 0.57 | 783.761 ± 0.58 | 779.299 ± 0.59 | 774.738 ± 0.59 | 770.073 ± 0.6
x1 = 1 | 810.689 ± 0.55 | 806.646 ± 0.56 | 802.528 ± 0.56 | 798.326 ± 0.57 | 794.03 ± 0.57 | 789.632 ± 0.58 | 785.117 ± 0.58 | 780.515 ± 0.59
